Experimental data published in ChEMBL document CHEMBL1125208, “Applications of neural networks in quantitative structure-activity relationships of dihydrofolate reductase inhibitors” (J Med Chem, 1991).

Molecular target: T1, Dihydrofolate reductase (Mus musculus) (UniProt P00375)
T1 sequence (whole entry): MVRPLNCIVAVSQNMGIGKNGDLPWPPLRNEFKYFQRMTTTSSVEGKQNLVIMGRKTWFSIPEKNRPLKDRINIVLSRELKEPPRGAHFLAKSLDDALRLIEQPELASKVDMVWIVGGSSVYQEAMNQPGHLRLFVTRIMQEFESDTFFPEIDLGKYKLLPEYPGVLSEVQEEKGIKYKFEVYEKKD
Assay: Inhibition of dihydrofolate reductase from L1210 leukemia tumors

Row | SMILES | Log 1/C
1 | Cc1cc(NC(=O)NCCCOc2ccc(N3C(N)=NC(N)=NC3(C)C)cc2Cl)ccc1S(=O)(=O)F | 8.06
2 | CC1(C)N=C(N)N=C(N)N1c1ccc(Cl)c(CCc2ccc(S(=O)(=O)F)cc2)c1 | 5.82
3 | CC1(C)N=C(N)N=C(N)N1c1cccc(CNC(=O)Nc2cccc(Cl)c2)c1 | 8.05
4 | CC1(C)N=C(N)N=C(N)N1c1ccc(Cl)c(OCCCOc2ccc(S(=O)(=O)F)cc2)c1 | 7.51
5 | CC1(C)N=C(N)N=C(N)N1c1ccc(CCc2ccc(Cl)c(S(=O)(=O)F)c2)c(Cl)c1 | 8.27
6 | Cc1cc(S(=O)(=O)F)ccc1COc1ccc(N2C(N)=NC(N)=NC2(C)C)cc1Cl | 7.38
7 | CC1(C)N=C(N)N=C(N)N1c1ccc(OCc2cc(Cl)ccc2S(=O)(=O)F)c(Cl)c1 | 7.27
8 | CC1(C)N=C(N)N=C(N)N1c1ccc(OCCCNC(=O)Nc2ccc(S(=O)(=O)F)cc2)c(Cl)c1 | 7.68
9 | CC1(C)N=C(N)N=C(N)N1c1ccc(OCc2ccc(S(=O)(=O)F)c(Cl)c2)c(Cl)c1 | 7.43
10 | CC1(C)N=C(N)N=C(N)N1c1cccc(CNC(=O)N2CCOCC2)c1 | 6.43
11 | CC1(C)N=C(N)N=C(N)N1c1cccc(CCCCc2ccc(S(=O)(=O)F)cc2)c1 | 8.1
12 | CC1(C)N=C(N)N=C(N)N1c1ccc(OCc2ccc(Cl)cc2S(=O)(=O)F)c(Cl)c1 | 7.52
13 | CC1(C)N=C(N)N=C(N)N1c1ccc(CCCCCCc2ccc(S(=O)(=O)F)cc2)cc1 | 7.12
14 | CC1(C)N=C(N)N=C(N)N1c1ccc(Cl)c(OCCOc2ccc(S(=O)(=O)F)cc2)c1 | 7.27
15 | CC1(C)N=C(N)N=C(N)N1c1ccc(OCCCC(=O)Nc2ccc(S(=O)(=O)F)cc2)c(Cl)c1 | 7.15
16 | CC1(C)N=C(N)N=C(N)N1c1ccc(OCCCCC(=O)Nc2ccc(S(=O)(=O)F)cc2)c(Cl)c1 | 7.24
17 | CC1(C)N=C(N)N=C(N)N1c1ccc(OCCCOc2ccc(S(=O)(=O)F)cc2)c(Cl)c1 | 7.07
18 | CC1(C)N=C(N)N=C(N)N1c1ccc(CCCCc2ccccc2)c(Cl)c1 | 7.92
19 | CC1(C)N=C(N)N=C(N)N1c1ccc(CCc2ccccc2)cc1 | 7.89
20 | CC(Oc1ccc(N2C(N)=NC(N)=NC2(C)C)cc1Cl)C(=O)Nc1ccc(S(=O)(=O)F)cc1 (stereo not given) | 7.13
21 | CC1(C)N=C(N)N=C(N)N1c1ccc(SCC(=O)Nc2ccc(S(=O)(=O)F)cc2)cc1 | 7.52
22 | CC1(C)N=C(N)N=C(N)N1c1ccc(OCc2cccc(S(=O)(=O)F)c2Cl)c(Cl)c1 | 7.49
23 | CC1(C)N=C(N)N=C(N)N1c1cccc(CNC(=O)Nc2cccc(C#N)c2)c1 | 8.19
24 | CC1(C)N=C(N)N=C(N)N1c1ccc(CCCCc2ccc(S(=O)(=O)F)c(Cl)c2)c(Cl)c1 | 7.7
25 | CC1(C)N=C(N)N=C(N)N1c1cccc(CCCCc2cccc(S(=O)(=O)F)c2)c1 | 8.1
